Some test systems named below: DMS-273; LXFL 529; SNB-78; KM-20L2; M19-MEL; DLD-1; XF498; HOP-18; RXF 631.
Holding throughout (assay): NCI tumour cell line growth inhibition, 48 h

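In this assay, cells in 96-well plates receive the compound at five concentrations for 48 hours. Endpoints are linearly interpolated between the surrounding concentrations. GI50 = concentration required for 50% inhibition of growth.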 Active and inactive are the calls of the source. Rule as the data show it: active = GI50 up to about 1.1 µM and inactive = higher.

As for `CCCCN(CCCC)CCCn1cnc2ncccc2c1=O`, the GI50 with DMS-273, with LXFL 529, in the assay on SNB-78, in the assay on KM-20L2, in the assay on M19-MEL and in the assay with DLD-1 was > 100 µM (inactive) in each case. In addition, the GI50 in the assay with XF498 is > 100 µM (inactive).
With `CCCCCCCCCCCCCCCCCCNC(=O)OCC(CNS(=O)(=O)CCC[n+]1cccc2ccccc21)COC` (centres undefined), the GI50 with DMS-273 was 0.251 µM (active); with HOP-18 it was 3.32 µM (inactive); in the assay on LXFL 529, 1.21 µM (inactive); with SNB-78 it was 1.23 µM (inactive); in the assay on KM-20L2 it was 0.776 µM (active); with M19-MEL, 1.2 µM (inactive). Also, the figures for the GI50 with DLD-1 and in the assay with XF498 were 2.85 µM (inactive) and 1.43 µM (inactive), respectively.
On to `CC(C)(C)C(=O)Nc1ccccc1Br`, for which the GI50 with DMS-273, in the assay with LXFL 529, with KM-20L2, in the assay on M19-MEL, with DLD-1 and in the assay on XF498 was > 100 µM (inactive) throughout.
Consider `Cc1cc(N)c2cc(NC(=O)CCCCCCCCC(=O)Nc3ccc4nc(C)cc(N)c4c3)ccc2n1`, for which the GI50 was 7.19 µM (inactive) with DMS-273; > 100 µM (inactive) with HOP-18; 4.37 µM (inactive) with LXFL 529; > 100 µM (inactive) in the assay on SNB-78; 29.1 µM (inactive) with KM-20L2; 15.4 µM (inactive) with M19-MEL. In addition, the GI50 is > 100 µM (inactive) with DLD-1 and > 27.2 µM (inactive) in the assay with XF498.
`COc1c2c(cc3c1C(=O)Cc1ccc4c(c1CN(C)CC3)OCO4)OCO2`: the GI50 is 20.7 µM (inactive) in the assay on HOP-18; > 100 µM (inactive) in the assay on SNB-78; 38.2 µM (inactive) in the assay on KM-20L2; > 100 µM (inactive) with M19-MEL; 44.8 µM (inactive) in the assay with RXF 631; > 100 µM (inactive) with DLD-1.
As for `CCCN(CCC)c1c([N+](=O)[O-])cc(C(N)=O)cc1[N+](=O)[O-]`, the GI50 in the assay on DMS-273 is 58.9 µM (inactive); in the assay on LXFL 529 it was > 100 µM (inactive); in the assay on M19-MEL it was 48.5 µM (inactive); with DLD-1, > 100 µM (inactive); in the assay with XF498, 81.3 µM (inactive).
Consider `Cc1nc2c(N)ncnc2o1`, for which the GI50 in the assay with DMS-273, in the assay on HOP-18, in the assay on LXFL 529, with SNB-78, in the assay on KM-20L2 and in the assay on M19-MEL was > 100 µM (inactive) throughout. For the same compound, the GI50 in the assay on RXF 631 and in the assay on DLD-1 was > 100 µM (inactive) each time.
Take `COc1cc(O)c2c(c1)C(=O)C=C(Cl)C2=O`: the GI50 in the assay with DMS-273, with HOP-18, with LXFL 529, in the assay with SNB-78, with KM-20L2 and in the assay with M19-MEL was > 100 µM (inactive) throughout. For the same compound, the GI50 with RXF 631 is 51.4 µM (inactive); with DLD-1, 30.3 µM (inactive); in the assay with XF498 it was 42.2 µM (inactive).
As for `Cc1nc2c(n1CCC(C)C)C(=O)c1ccccc1C2=O`, the GI50 is 11 µM (inactive) in the assay on DMS-273; 13.1 µM (inactive) with LXFL 529; 28.1 µM (inactive) in the assay on SNB-78; 28.5 µM (inactive) in the assay on KM-20L2; 14.5 µM (inactive) with M19-MEL; 11.1 µM (inactive) in the assay on DLD-1. Besides, in the assay with XF498, the GI50 was 17.2 µM (inactive).
With `CC12CCC(=O)N1c1ccc([N+](=O)[O-])cc1N2` (centres undefined), the GI50 with DMS-273, in the assay with HOP-18, with LXFL 529, in the assay with SNB-78, in the assay with KM-20L2 and in the assay with M19-MEL was > 100 µM (inactive) throughout. The GI50 with DLD-1 was > 100 µM (inactive).
On to `N#CC(C#N)=c1c2nsnc2c(=C(C#N)C#N)c2nsnc12`, for which the GI50 with DMS-273 is 1.57 µM (inactive); with HOP-18, 2.66 µM (inactive); with LXFL 529, 1.63 µM (inactive); in the assay on SNB-78 it was 1.74 µM (inactive); with KM-20L2, 1.8 µM (inactive); in the assay on DLD-1 it was 2.03 µM (inactive).
`Cc1cc2c(=O)c3ccc(Cl)cc3[nH]c2c(C(=O)O)c1C`: the GI50 in the assay on HOP-18, in the assay on LXFL 529, in the assay with SNB-78, in the assay with KM-20L2, in the assay with M19-MEL and with DLD-1 was > 100 µM (inactive) throughout. In addition, the GI50 with XF498 is > 100 µM (inactive).
Take `O=[N+]([O-])C(=C(c1ccccc1)c1ccccc1)[N+](=O)[O-]`: the GI50 is 4.53 µM (inactive) in the assay with DMS-273; 15.6 µM (inactive) with LXFL 529; > 10 µM (inactive) in the assay with SNB-78; 17.2 µM (inactive) in the assay on KM-20L2; 3.46 µM (inactive) in the assay on DLD-1.
In the case of `COc1ccc2c(C(=O)O)cc3ccccc3c2c1OC`, the GI50 in the assay with DMS-273 was 23.5 µM (inactive); in the assay on HOP-18, 15.5 µM (inactive); with LXFL 529 it was 17.1 µM (inactive); with SNB-78 it was 16.9 µM (inactive); with KM-20L2, 22.8 µM (inactive); with M19-MEL, 21.3 µM (inactive). Moreover, the GI50 was 30.9 µM (inactive) in the assay on DLD-1 and 15.8 µM (inactive) in the assay on XF498.
On to `C=CCN1CCC23c4c5ccc(O)c4OC2C(=NN=C2CCC4(O)C6Cc7ccc(O)c8c7C4(CCN6CC=C)C2O8)CCC3(O)C1C5` (centres undefined), for which the GI50 in the assay on DMS-273 was 19.1 µM (inactive); in the assay with HOP-18, > 100 µM (inactive); with LXFL 529 it was 32.1 µM (inactive); in the assay with SNB-78, 27.2 µM (inactive); in the assay with KM-20L2, 23.3 µM (inactive); with RXF 631, 20.5 µM (inactive). The GI50 with DLD-1 is 38.7 µM (inactive); in the assay on XF498 it was 17.3 µM (inactive).
Consider `O=C(NCC#CCO)C(F)(F)F`, for which the GI50 with DMS-273, in the assay on SNB-78, in the assay with RXF 631, with DLD-1 and in the assay with XF498 was > 100 µM (inactive) throughout.
Consider `CC(=O)/C=C/c1ccc(C2CC(C)=Nc3c(ccc4c3C(=O)c3ccccc3C4=O)N2)cc1` (centres undefined), for which the GI50 with DMS-273 is 66.1 µM (inactive); in the assay on HOP-18, > 80.9 µM (inactive); in the assay with SNB-78, > 100 µM (inactive); in the assay with KM-20L2 it was > 100 µM (inactive); in the assay on M19-MEL it was > 62.5 µM (inactive); in the assay with DLD-1, 24.7 µM (inactive). The GI50 in the assay with XF498 is > 100 µM (inactive).
Take `CCOC(=O)CCn1cnc(N)n1`: the GI50 in the assay with DMS-273, in the assay with HOP-18, with LXFL 529, with SNB-78, with KM-20L2 and in the assay on M19-MEL was > 100 µM (inactive) in each case. Besides, the GI50 in the assay on RXF 631, in the assay with DLD-1 and in the assay with XF498 was > 100 µM (inactive) in each case.
For `CC(C)C1COC(c2ccc3ccccc3c2-c2c(O[Si](C)(C)C(C)(C)C)ccc3ccccc23)=N1` (centres undefined), the GI50 in the assay on DMS-273 is 21.4 µM (inactive); in the assay on LXFL 529 it was 15.4 µM (inactive); with SNB-78, 6.59 µM (inactive); with KM-20L2, 19.5 µM (inactive); in the assay on M19-MEL, 18.8 µM (inactive); in the assay on RXF 631, 14.9 µM (inactive). Besides, the figures for the GI50 with DLD-1 and in the assay with XF498 were 17.1 µM (inactive) and 14.5 µM (inactive), respectively.
On to `Cc1ccccc1NC(=O)C(=O)c1c(O)c2ccc(O)cc2oc1=O`, for which the GI50 in the assay with DMS-273, with HOP-18, with LXFL 529, with KM-20L2, in the assay with M19-MEL and in the assay with DLD-1 was > 100 µM (inactive) in each case. Also, in the assay on XF498, the GI50 is > 100 µM (inactive).
For `CCC(C)CCOC(=O)c1ccc(/N=C\c2ccc(/C=N/c3ccc(C(=O)OCCC(C)CC)cc3)cc2)cc1` (centres undefined), the GI50 with DMS-273, in the assay with HOP-18, in the assay on LXFL 529, in the assay with SNB-78, with KM-20L2 and with DLD-1 was > 100 µM (inactive) each time.
As for `COc1ccc(-c2onc(-c3ccc([N+](=O)[O-])cc3)c2C2=NCCN2)cc1`, the GI50 in the assay with HOP-18 is 87.5 µM (inactive); in the assay with LXFL 529 it was 35.5 µM (inactive); with SNB-78, 67.3 µM (inactive); in the assay with KM-20L2, > 100 µM (inactive); with M19-MEL, > 100 µM (inactive); in the assay on DLD-1 it was 74.1 µM (inactive). Further, the GI50 in the assay on XF498 is 66.7 µM (inactive).
Take `CCOC(=O)C1N(S(=O)(=O)c2ccc(C)cc2)CCC12c1ccccc1N(C(C)=O)C2c1ccc(OC)c(OC)c1` (centres undefined): the GI50 in the assay on DMS-273 was > 100 µM (inactive); in the assay on LXFL 529, > 100 µM (inactive); with SNB-78 it was > 100 µM (inactive); in the assay with KM-20L2, > 100 µM (inactive); in the assay with M19-MEL, > 100 µM (inactive); in the assay with DLD-1, 78.2 µM (inactive). Moreover, the GI50 in the assay on XF498 was 21.7 µM (inactive).
With `COCOCc1cc(OCc2ccccc2)c(OC)cc1Br`, the GI50 in the assay with DMS-273 was 64.6 µM (inactive); with HOP-18, > 100 µM (inactive); in the assay with SNB-78, > 100 µM (inactive); with KM-20L2, > 100 µM (inactive); in the assay on M19-MEL, > 100 µM (inactive); in the assay on DLD-1, > 100 µM (inactive). The GI50 in the assay with XF498 is > 100 µM (inactive).
For `O=C(CCC(=O)C(C(=O)c1ccccc1)c1ccccc1)Nc1cccc(C(F)(F)F)c1` (centres undefined), the GI50 in the assay on DMS-273, in the assay with HOP-18, in the assay with LXFL 529, with SNB-78, with KM-20L2 and in the assay on M19-MEL was > 100 µM (inactive) in each case. In addition, the GI50 in the assay with DLD-1 and in the assay with XF498 was > 100 µM (inactive) throughout.
As for `COC(=O)C(Cc1c[nH]c2ccccc12)NC(=O)C(Cc1c[nH]c2ccccc12)NC(=O)OCc1ccccc1` (centres undefined), the GI50 was 16 µM (inactive) with DMS-273; 16.7 µM (inactive) in the assay on LXFL 529; 25.8 µM (inactive) in the assay on SNB-78; 18.2 µM (inactive) in the assay on KM-20L2; 18.4 µM (inactive) in the assay with M19-MEL; 24 µM (inactive) with RXF 631. The values for the GI50 in the assay with DLD-1 and in the assay on XF498 were 18.5 µM (inactive) and 14.8 µM (inactive), respectively.

Source of the values: ChEMBL document CHEMBL1201862, “PubChem BioAssay data set” (2004).
